Where a name gives a salt, the structure may show the parent alone. Read-outs that look alike come from different tables or passages of the source.
Columns and labels:
N822H = N822H (Homo sapiens, UniProt P10721, N822H); conditions: like wt KIT, literature (25); cited from earlier work
D816V mutation = D816V mutation (Homo sapiens, UniProt P10721, D816V); conditions: literature (29), cited from earlier work
KIT mutant D816V = target: T1, KIT mutant D816V (Homo sapiens, UniProt P10721, D816V); experiment: Yeast cell-based growth rescue assay, KIT mutant; conditions: 0.2 to 100 µM; yeast strain RLY09/Δptp1; PD180970 effect at the highest concentrations
T1 construct: preferably cytoplasmic domains of RTKs or fragments thereof, are expressed in the cytoplasm of host cells; expressed in transfected cells; host or cells: S. cerevisiae RLY09/Δptp1
From the text: (§1) Expression of wild-type KIT confers only a slight slow growth phenotype in yeast (in the RLY07 strain, under the full-length GAL promoter). Various mutations that occur in human GISTs or in mastocytosis were introduced in the Kit construct expressed in yeast. Expression of the various mutants caused reduced yeast growth but in various extent, likely correlating with various extent of activity (see graphs Figures 7a and 7b) . […] The yeast strain expressing the various Kit proteins in this experiment, was […] which all the Kit proteins produce a similar slow growth phenotype (see values of the window vector/RTK). The starting OD was optimized to obtain windows as similar as possible.

KIT mutant D816Y = target: T2, KIT mutant D816Y (Homo sapiens, UniProt P10721, D816Y); experiment: Yeast cell-based growth rescue assay, KIT mutant; conditions: 0.2 to 100 µM; yeast strain RLY09/Δptp1; PD180970 effect at the highest concentrations
T2 construct: preferably cytoplasmic domains of RTKs or fragments thereof, are expressed in the cytoplasm of host cells; expressed in transfected cells; host or cells: S. cerevisiae RLY09/Δptp1
From the text: as §1

KIT mutant D816F = target: T3, KIT mutant D816F (Homo sapiens, UniProt P10721, D816F); experiment: Yeast cell-based growth rescue assay, KIT mutant; conditions: 0.2 to 100 µM; yeast strain RLY09/Δptp1; PD180970 effect at the highest concentrations
T3 construct: preferably cytoplasmic domains of RTKs or fragments thereof, are expressed in the cytoplasm of host cells; expressed in transfected cells; host or cells: S. cerevisiae RLY09/Δptp1
From the text: as §1

K642E = K642E (Homo sapiens, UniProt P10721, K642E); conditions: like wt KIT, literature (25); cited from earlier work
HMC1.1 = conditions: human cell line HMC1.1 expressing V560G mutation; literature (29); cited from earlier work
RET = target: T4, RET (Homo sapiens, UniProt P07949); experiment: Yeast growth assay, selection of specific RTK inhibition (OD 600 nm); type: cell-based; conditions: 50 µM in the yeast culture
T4 construct: preferably cytoplasmic domains of RTKs or fragments thereof, are expressed in the cytoplasm of host cells; expressed in transfected cells; host or cells: yeast (S. cerevisiae)
T4 sequence (P07949 658-1114 limits assumed): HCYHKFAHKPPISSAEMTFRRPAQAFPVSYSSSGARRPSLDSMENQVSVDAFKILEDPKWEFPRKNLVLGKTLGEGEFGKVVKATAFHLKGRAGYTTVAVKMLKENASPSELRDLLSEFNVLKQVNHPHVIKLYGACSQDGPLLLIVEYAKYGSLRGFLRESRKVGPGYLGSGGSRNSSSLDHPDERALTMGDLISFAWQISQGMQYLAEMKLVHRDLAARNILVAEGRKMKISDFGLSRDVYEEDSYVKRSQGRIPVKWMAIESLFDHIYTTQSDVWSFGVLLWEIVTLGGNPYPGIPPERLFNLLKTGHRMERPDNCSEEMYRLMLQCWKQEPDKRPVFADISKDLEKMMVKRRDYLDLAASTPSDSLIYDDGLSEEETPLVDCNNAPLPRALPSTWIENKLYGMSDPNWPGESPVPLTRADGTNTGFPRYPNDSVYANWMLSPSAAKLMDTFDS
From the text: (§2) Selection of specific inhibition of Receptor Tyrosine Kinase activity in yeast.

PDGFR-β = experiment: as above; type: cell-based, human; conditions: 50 µM in the yeast culture
From the text: as §2

HMC-1 cells = conditions: literature (23); cited from earlier work
[1] = patients with nonsmall cell lung cancer; cited from earlier work

Sequence of D816V mutation (P10721 26-976 D816V): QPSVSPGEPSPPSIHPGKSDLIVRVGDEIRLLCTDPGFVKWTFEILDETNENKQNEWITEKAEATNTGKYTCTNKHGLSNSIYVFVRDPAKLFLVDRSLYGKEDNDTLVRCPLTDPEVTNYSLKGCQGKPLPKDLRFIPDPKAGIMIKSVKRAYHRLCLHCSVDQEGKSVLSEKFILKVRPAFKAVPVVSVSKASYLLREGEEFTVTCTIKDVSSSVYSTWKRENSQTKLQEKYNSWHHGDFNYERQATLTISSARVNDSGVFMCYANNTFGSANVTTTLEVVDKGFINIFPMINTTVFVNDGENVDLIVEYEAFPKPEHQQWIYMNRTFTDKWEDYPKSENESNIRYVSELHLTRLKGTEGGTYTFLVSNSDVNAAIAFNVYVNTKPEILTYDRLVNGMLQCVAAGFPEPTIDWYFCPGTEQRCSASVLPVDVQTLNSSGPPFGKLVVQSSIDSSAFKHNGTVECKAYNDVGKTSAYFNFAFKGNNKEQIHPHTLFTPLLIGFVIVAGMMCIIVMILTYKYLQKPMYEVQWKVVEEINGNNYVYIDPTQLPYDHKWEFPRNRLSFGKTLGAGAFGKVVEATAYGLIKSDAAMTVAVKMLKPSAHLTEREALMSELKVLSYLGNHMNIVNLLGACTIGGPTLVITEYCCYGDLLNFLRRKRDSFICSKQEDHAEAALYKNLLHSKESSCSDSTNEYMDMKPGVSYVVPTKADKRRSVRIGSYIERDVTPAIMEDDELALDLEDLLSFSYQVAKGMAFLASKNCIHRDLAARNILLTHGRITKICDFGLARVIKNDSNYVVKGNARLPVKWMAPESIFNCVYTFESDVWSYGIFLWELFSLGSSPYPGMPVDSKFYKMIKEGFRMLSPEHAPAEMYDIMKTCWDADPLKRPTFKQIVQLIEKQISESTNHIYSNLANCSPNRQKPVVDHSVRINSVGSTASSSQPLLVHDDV
T3 sequence (P10721 546-976 D816F limits assumed): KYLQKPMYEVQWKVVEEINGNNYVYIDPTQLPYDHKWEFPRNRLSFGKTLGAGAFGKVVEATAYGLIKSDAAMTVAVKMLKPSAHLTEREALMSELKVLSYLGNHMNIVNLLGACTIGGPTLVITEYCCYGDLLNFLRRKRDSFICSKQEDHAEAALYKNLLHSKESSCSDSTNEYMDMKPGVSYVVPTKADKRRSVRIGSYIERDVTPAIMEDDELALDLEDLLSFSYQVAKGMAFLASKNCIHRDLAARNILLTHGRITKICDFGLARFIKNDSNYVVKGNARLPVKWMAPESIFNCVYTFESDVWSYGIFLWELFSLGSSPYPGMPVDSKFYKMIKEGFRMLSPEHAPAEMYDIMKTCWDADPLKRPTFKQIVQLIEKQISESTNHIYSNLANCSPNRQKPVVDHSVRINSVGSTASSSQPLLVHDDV
T1 sequence (P10721 546-976 D816V limits assumed): as the sequence (P10721 546-976 D816F limits assumed) above, with F271V counted along it
T2 sequence (P10721 546-976 D816Y limits assumed): as the sequence (P10721 546-976 D816F limits assumed) above, with F271Y counted along it
Sequence of K642E (P10721 26-976 K642E): as the sequence (P10721 26-976 D816V) above, with K617E, V791D counted along it
Sequence of N822H (P10721 26-976 N822H): as the sequence (P10721 26-976 D816V) above, with V791D, N797H counted along it

| Compound | sensitive in vitro (concentration) (N822H) [nM] | resistance of D816V mutant to inhibitor (D816V mutation) | resistance of D816V mutant to inhibitor (D816V mutation; listed as STI571) | sensitivity of mutant D816V in yeast (growth rescue) (KIT mutant D816V) | sensitivity of mutant D816Y in yeast (growth rescue) (KIT mutant D816Y) | sensitivity of mutant D816F in yeast (growth rescue) (KIT mutant D816F) | sensitive in vitro (concentration) (K642E) [nM] | apoptosis (HMC1.1) | restores growth of cells expressing RET (RET) | restores growth of PDGFR-β-expressing yeast cells (PDGFR-β) | KIT phosphorylation (HMC-1 cells) | cell proliferation (HMC-1 cells) | patients have a rapid and often dramatic clinical response [1] [%] |
| --- | --- | --- | --- | --- | --- | --- | --- | --- | --- | --- | --- | --- | --- |
| Cc1ccc(NC(=O)c2ccc(CN3CCN(C)CC3)cc2)cc1Nc1nccc(-c2cccnc2)n1 [Gleevec, imatinib mesylate] | 100 to 200 | resistant | resistance | resistant | resistant | resistant | 100 to 200 | induce apoptosis | not growth of cells expressing RET | specifically restores growth | – | – | – |
| Cc1cc(Nc2ncc3cc(-c4c(Cl)cccc4Cl)c(=O)n(C)c3n2)ccc1F [PD180970] | – | resistant | – | slight effect | slight effect | slight effect | – | – | – | – | inhibits | inhibits | – |
| COc1cc2ncnc(Nc3ccc(F)c(Cl)c3)c2cc1OCCCN1CCOCC1 [gefitinib] | – | – | – | – | – | – | – | – | – | – | – | – | 10 |
